{"source": "paper PMC5218480", "about": "(PLoS ONE, 2017)", "tested_on": "MV-4-11 cells", "assay": "Gene expression microarray analysis (Affymetrix PrimeView) and GSEA", "assay_type": "cell-based, human", "set-up": "RFU PODN (11730768_x_at) / Fold change /veh PODN (11730768_x_at) / RFU LINC00158 (11744669_a_at) / Fold change /veh LINC00158 (11744669_a_at) / RFU DUSP10 (11751237_a_at) / Fold change /veh DUSP10 (11751237_a_at) / RFU ID3 (11757404_x_at) / Fold change /veh ID3 (11757404_x_at) / RFU PLEKHG5 (11737974_s_at) / Fold change /veh PLEKHG5 (11737974_s_at) / RFU LRRC4B (11730491_at) / Fold change /veh LRRC4B (11730491_at) / RFU GIMAP4 (11747438_a_at) / Fold change /veh GIMAP4 (11747438_a_at) / RFU KRT8 (11758183_x_at) / Fold change /veh KRT8 (11758183_x_at) / RFU CNN1 (11734310_a_at) / Fold change /veh CNN1 (11734310_a_at) / RFU VPS37D (11726825_at) / Fold change /veh VPS37D (11726825_at) / RFU C10orf10 (11716522_x_at) / Fold change /veh C10orf10 (11716522_x_at) / RFU KIR2DL2 /// KIR2DL4 /// KIR2DL5A /// KIR2DL5B /// KIR2DS1 /// KIR2DS2 /// KIR2DS3 /// KIR2DS4 /// KIR3DL3 /// KIR3DL3 /// KIR3DS1 (11738374_at) / Fold change /veh KIR2DL2 /// KIR2DL4 /// KIR2DL5A /// KIR2DL5B /// KIR2DS1 /// KIR2DS2 /// KIR2DS3 /// KIR2DS4 /// KIR3DL3 /// KIR3DL3 /// KIR3DS1 (11738374_at) / RFU C1QL1 (11718748_at) / Fold change /veh C1QL1 (11718748_at) / RFU TMPRSS4 (11747572_a_at) / Fold change /veh TMPRSS4 (11747572_a_at) / RFU HAMP (11756126_x_at) / Fold change /veh HAMP (11756126_x_at) / RFU RNFT2 (11725882_a_at) / Fold change /veh RNFT2 (11725882_a_at) / RFU NR4A2 (11747474_a_at) / Fold change /veh NR4A2 (11747474_a_at) / RFU ABCC12 (11746883_a_at) / Fold change /veh ABCC12 (11746883_a_at) / RFU TMEM136 (11760407_x_at) / Fold change /veh TMEM136 (11760407_x_at) / RFU CLDN22 /// WWC2 (11732394_at) / Fold change /veh CLDN22 /// WWC2 (11732394_at) / RFU HLA-DPB1 (11760878_x_at) / Fold change /veh HLA-DPB1 (11760878_x_at) / RFU SPINT1 (11716480_a_at) / Fold change /veh SPINT1 (11716480_a_at) / RFU GAP43 (11754022_s_at) / Fold change /veh GAP43 (11754022_s_at) / RFU A4GNT (11735810_at) / Fold change /veh A4GNT (11735810_at) / RFU PRB3 (11715151_x_at) / Fold change /veh PRB3 (11715151_x_at) / RFU TUBB4B (11761932_at) / Fold change /veh TUBB4B (11761932_at) / RFU CAPN14 (11732068_a_at) / Fold change /veh CAPN14 (11732068_a_at) / RFU TMCC2 (11721928_a_at) / Fold change /veh TMCC2 (11721928_a_at) / RFU IRGQ (11745062_a_at) / Fold change /veh IRGQ (11745062_a_at) / RFU FAM174B (11720279_a_at) / Fold change /veh FAM174B (11720279_a_at) / RFU TMPRSS4 (11748680_a_at) / Fold change /veh TMPRSS4 (11748680_a_at) / RFU FAM212B (11763350_a_at) / Fold change /veh FAM212B (11763350_a_at) / RFU PLEKHG5 (11743358_a_at) / Fold change /veh PLEKHG5 (11743358_a_at) / RFU ZSCAN30 (11745921_a_at) / Fold change /veh ZSCAN30 (11745921_a_at) / RFU CMKLR1 (11741424_a_at) / Fold change /veh CMKLR1 (11741424_a_at) / RFU LOC101060620 /// MAPK8IP1 (11723275_at) / Fold change /veh LOC101060620 /// MAPK8IP1 (11723275_at) / RFU SPTSSB (11747773_x_at) / Fold change /veh SPTSSB (11747773_x_at) / RFU PRSS12 (11739890_at) / Fold change /veh PRSS12 (11739890_at) / RFU BIN1 (11741810_x_at) / Fold change /veh BIN1 (11741810_x_at) / RFU WNT11 (11732464_a_at) / Fold change /veh WNT11 (11732464_a_at) / RFU C10orf10 (11716521_a_at) / Fold change /veh C10orf10 (11716521_a_at) / RFU C5orf56 (11738089_at) / Fold change /veh C5orf56 (11738089_at) / RFU CYB561 (11721691_x_at) / Fold change /veh CYB561 (11721691_x_at) / RFU ANKRD19P (11752326_a_at) / Fold change /veh ANKRD19P (11752326_a_at) / RFU OR2T12 /// OR2T33 /// OR2T8 (11738714_s_at) / Fold change /veh OR2T12 /// OR2T33 /// OR2T8 (11738714_s_at) / RFU VCAN (11748164_a_at) / Fold change /veh VCAN (11748164_a_at) / RFU JSRP1 (11732532_at) / Fold change /veh JSRP1 (11732532_at) / RFU KRTAP10-11 (11738290_x_at) / Fold change /veh KRTAP10-11 (11738290_x_at) / RFU MYO3A (11730013_a_at) / Fold change /veh MYO3A (11730013_a_at) / RFU EBF3 (11725865_a_at) / Fold change /veh EBF3 (11725865_a_at) / RFU CAMK2N1 (11719241_x_at) / Fold change /veh CAMK2N1 (11719241_x_at) / RFU C5orf56 (11738088_a_at) / Fold change /veh C5orf56 (11738088_a_at) / RFU OLFML3 (11715873_a_at) / Fold change /veh OLFML3 (11715873_a_at) / RFU LOC100653217 /// NTM (11731650_a_at) / Fold change /veh LOC100653217 /// NTM (11731650_a_at) / RFU MAPK11 (11762145_a_at) / Fold change /veh MAPK11 (11762145_a_at) / RFU FIZ1 (11724087_x_at) / Fold change /veh FIZ1 (11724087_x_at) / RFU OASL (11726364_x_at) / Fold change /veh OASL (11726364_x_at) / RFU SOX15 (11748057_x_at) / Fold change /veh SOX15 (11748057_x_at) / RFU CD79A (11719716_a_at) / Fold change /veh CD79A (11719716_a_at) / RFU HIST1H1D (11736915_at) / Fold change /veh HIST1H1D (11736915_at) / RFU CASKIN2 (11723855_a_at) / Fold change /veh CASKIN2 (11723855_a_at) / RFU LOC730098 (11760151_x_at) / Fold change /veh LOC730098 (11760151_x_at) / RFU OR4N2 (11742367_at) / Fold change /veh OR4N2 (11742367_at) / RFU PRRT2 (11749266_a_at) / Fold change /veh PRRT2 (11749266_a_at) / RFU SNX32 (11753110_a_at) / Fold change /veh SNX32 (11753110_a_at) / RFU CDHR5 (11726645_a_at) / Fold change /veh CDHR5 (11726645_a_at) / RFU RCAN1 (11760418_a_at) / Fold change /veh RCAN1 (11760418_a_at) / RFU FAM167A (11723789_a_at) / Fold change /veh FAM167A (11723789_a_at) / RFU FAM26E (11764081_at) / Fold change /veh FAM26E (11764081_at) / RFU ISYNA1 (11749810_s_at) / Fold change /veh ISYNA1 (11749810_s_at) / RFU ACY1 (11761880_at) / Fold change /veh ACY1 (11761880_at) / RFU 11764098_at / Fold change /veh 11764098_at / RFU SAMD14 (11745864_x_at) / Fold change /veh SAMD14 (11745864_x_at) / RFU NPB (11741838_a_at) / Fold change /veh NPB (11741838_a_at) / RFU TMPRSS6 (11731388_a_at) / Fold change /veh TMPRSS6 (11731388_a_at) / RFU KRTAP10-2 (11738614_at) / Fold change /veh KRTAP10-2 (11738614_at) / RFU ARHGAP8 /// PRR5-ARHGAP8 (11727945_x_at) / Fold change /veh ARHGAP8 /// PRR5-ARHGAP8 (11727945_x_at) / RFU KRTAP5-7 /// NADSYN1 (11734609_at) / Fold change /veh KRTAP5-7 /// NADSYN1 (11734609_at) / RFU RASL12 (11751679_a_at) / Fold change /veh RASL12 (11751679_a_at) / RFU CDKN2B (11736163_a_at) / Fold change /veh CDKN2B (11736163_a_at) / RFU PRF1 (11729649_at) / Fold change /veh PRF1 (11729649_at) / RFU, ZNF638 /// ZNF638-IT1 / Fold change vs veh, ZNF638 /// ZNF638-IT1 / RFU, PANK3 / Fold change vs veh, PANK3 / RFU, SH3YL1 / Fold change vs veh, SH3YL1 / RFU, ZEB2 / Fold change vs veh, ZEB2 / RFU, NRIP1 / Fold change vs veh, NRIP1 / RFU, PTTG1IP / Fold change vs veh, PTTG1IP / RFU, CAPN2 / Fold change vs veh, CAPN2 / RFU, MED14 / Fold change vs veh, MED14 / RFU, SNORA58 / Fold change vs veh, SNORA58 / RFU, C1orf63 / Fold change vs veh, C1orf63 / RFU, LRRFIP1 / Fold change vs veh, LRRFIP1 / RFU, NDUFAF7 / Fold change vs veh, NDUFAF7 / RFU, SLC12A2 / Fold change vs veh, SLC12A2 / RFU, IBTK / Fold change vs veh, IBTK / RFU, ESF1 / Fold change vs veh, ESF1 / Fold change vs veh, TMEM50B / RFU, TAOK1 / Fold change vs veh, TAOK1 / RFU, ACBD3 / Fold change vs veh, ACBD3 / RFU, TMA16 / Fold change vs veh, TMA16 / RFU, RWDD3 / Fold change vs veh, RWDD3 / RFU, BCAT1 / Fold change vs veh, BCAT1 / RFU, EDEM3 / Fold change vs veh, EDEM3 / RFU, TMEM33 / Fold change vs veh, TMEM33 / RFU, WDR75 / Fold change vs veh, WDR75 / RFU, AHCTF1 / Fold change vs veh, AHCTF1 / RFU, TFRC / Fold change vs veh, TFRC / RFU, ZDHHC17 / Fold change vs veh, ZDHHC17 / RFU, NOM1 / Fold change vs veh, NOM1 / RFU, ARL8B / Fold change vs veh, ARL8B / RFU, ZBTB11 / Fold change vs veh, ZBTB11 / RFU, TAMM41 / Fold change vs veh, TAMM41 / RFU, KIAA1704 /// LOC100996395 / Fold change vs veh, KIAA1704 /// LOC100996395 / RFU, ING1 / Fold change vs veh, ING1 / RFU, TRMT61B / Fold change vs veh, TRMT61B / RFU, FUBP3 / Fold change vs veh, FUBP3 / RFU, TP53 / Fold change vs veh, TP53 / RFU, TNKS2 / Fold change vs veh, TNKS2 / RFU, ZFP14 / Fold change vs veh, ZFP14 / RFU, ACTR2 / Fold change vs veh, ACTR2 / RFU, PPP3R1 / Fold change vs veh, PPP3R1 / RFU, PIK3R1 / Fold change vs veh, PIK3R1 / RFU, HNRNPA1 / Fold change vs veh, HNRNPA1 / RFU, RNF170 / Fold change vs veh, RNF170 / RFU, ZNF28 / Fold change vs veh, ZNF28 / RFU, RNGTT / Fold change vs veh, RNGTT / RFU, OGT / Fold change vs veh, OGT / RFU, BRD1 / Fold change vs veh, BRD1 / RFU, MARS / Fold change vs veh, MARS / RFU, ZNF655 / Fold change vs veh, ZNF655 / RFU, FAHD1 / Fold change vs veh, FAHD1 / RFU, BDP1 / Fold change vs veh, BDP1 / RFU, LRRCC1 / Fold change vs veh, LRRCC1 / RFU, ARID1A / Fold change vs veh, ARID1A / RFU, ZNF146 / Fold change vs veh, ZNF146 / RFU, ZNF330 / Fold change vs veh, ZNF330 / RFU, GPN3 / Fold change vs veh, GPN3 / RFU, C9orf123 / Fold change vs veh, C9orf123 / RFU, N4BP2L2 / Fold change vs veh, N4BP2L2 / RFU, ARFIP1 / Fold change vs veh, ARFIP1 / RFU, FAM179B / Fold change vs veh, FAM179B / RFU, BCL10 / Fold change vs veh, BCL10 / RFU, UHRF1BP1L / Fold change vs veh, UHRF1BP1L / RFU, BET1 / Fold change vs veh, BET1 / RFU, CNOT2 / Fold change vs veh, CNOT2 / RFU, ZNF268 / Fold change vs veh, ZNF268 / Fold change vs veh, ZNF507 / RFU, DGCR2 / Fold change vs veh, DGCR2 / RFU, WDSUB1 / Fold change vs veh, WDSUB1 / Fold change vs veh, HSP90B1 /// MIR3652 / RFU, ADSS / Fold change vs veh, ADSS / RFU, GK / Fold change vs veh, GK / RFU, ZNF148 / Fold change vs veh, ZNF148 / RFU, TAF9 / Fold change vs veh, TAF9 / RFU, SLC1A5 / Fold change vs veh, SLC1A5 / RFU, SLMO2 / Fold change vs veh, SLMO2 / RFU, ABCC4 / Fold change vs veh, ABCC4 / RFU, LOC101060439 /// RAP1B / Fold change vs veh, LOC101060439 /// RAP1B / RFU, RFX7 / Fold change vs veh, RFX7 / RFU, GTPBP10 / Fold change vs veh, GTPBP10 / RFU, CNEP1R1 / Fold change vs veh, CNEP1R1 / RFU, BIVM-ERCC5 /// ERCC5 / Fold change vs veh, BIVM-ERCC5 /// ERCC5 / RFU, ILF3 / Fold change vs veh, ILF3 / RFU 11762660_at / Fold change /veh 11762660_at / RFU VCAN (11757783_s_at) / Fold change /veh VCAN (11757783_s_at) / RFU DDX43 (11728927_at) / Fold change /veh DDX43 (11728927_at) / RFU KRT8 (11758188_x_at) / Fold change /veh KRT8 (11758188_x_at) / RFU NKD1 (11759106_at) / Fold change /veh NKD1 (11759106_at) / RFU SRD5A1 (11742802_a_at) / Fold change /veh SRD5A1 (11742802_a_at) / RFU TPSAB1 /// TPSB2 (11721975_s_at) / Fold change /veh TPSAB1 /// TPSB2 (11721975_s_at) / RFU GSTM3 (11746129_a_at) / Fold change /veh GSTM3 (11746129_a_at) / RFU IL23R (11737362_x_at) / Fold change /veh IL23R (11737362_x_at) / RFU TMEM51 (11727254_a_at) / Fold change /veh TMEM51 (11727254_a_at) / RFU PIWIL2 (11732686_x_at) / Fold change /veh PIWIL2 (11732686_x_at) / RFU ORM1 (11744905_x_at) / Fold change /veh ORM1 (11744905_x_at) / RFU CCDC152 (11743942_at) / Fold change /veh CCDC152 (11743942_at) / RFU ECM1 (11717891_a_at) / Fold change /veh ECM1 (11717891_a_at) / RFU IL23R (11748794_a_at) / Fold change /veh IL23R (11748794_a_at) / RFU TNFAIP8L3 (11732012_x_at) / Fold change /veh TNFAIP8L3 (11732012_x_at) / RFU MBOAT4 (11741988_at) / Fold change /veh MBOAT4 (11741988_at) / RFU 11764193_at / Fold change /veh 11764193_at / RFU TMEM53 (11763286_at) / Fold change /veh TMEM53 (11763286_at) / RFU MAGEB2 (11727129_at) / Fold change /veh MAGEB2 (11727129_at) / RFU TMEM200A (11744735_a_at) / Fold change /veh TMEM200A (11744735_a_at) / RFU CCDC152 (11751479_a_at) / Fold change /veh CCDC152 (11751479_a_at) / RFU FAM211A (11726209_a_at) / Fold change /veh FAM211A (11726209_a_at) / RFU RGS16 (11746705_a_at) / Fold change /veh RGS16 (11746705_a_at) / RFU VCAN (11755009_s_at) / Fold change /veh VCAN (11755009_s_at) / RFU RHOB (11743442_s_at) / Fold change /veh RHOB (11743442_s_at) / RFU RGS16 (11720943_a_at) / Fold change /veh RGS16 (11720943_a_at) / RFU RGS16 (11720944_at) / Fold change /veh RGS16 (11720944_at) / RFU, VPS4B / Fold change vs veh, VPS4B / RFU, CREB1 / Fold change vs veh, CREB1 / RFU, DNAJC13 / Fold change vs veh, DNAJC13 / RFU, GNAQ / Fold change vs veh, GNAQ / RFU, CDK5R1 / Fold change vs veh, CDK5R1 / RFU, ZRANB3 / Fold change vs veh, ZRANB3 / RFU, CUL4A / Fold change vs veh, CUL4A / RFU, CCNY / Fold change vs veh, CCNY / RFU, UFL1 / Fold change vs veh, UFL1 / RFU, COG3 / Fold change vs veh, COG3 / RFU, DIAPH2 / Fold change vs veh, DIAPH2 / RFU, SKA2 / Fold change vs veh, SKA2 / RFU, AFF3 / Fold change vs veh, AFF3 / RFU, LMF1 / Fold change vs veh, LMF1 / RFU, IPO11 / Fold change vs veh, IPO11 / RFU, DFFB / Fold change vs veh, DFFB / RFU, FOXP1 / Fold change vs veh, FOXP1 / RFU, CARD8 / Fold change vs veh, CARD8 / RFU, STRN3 / Fold change vs veh, STRN3 / RFU, ADK / Fold change vs veh, ADK / RFU, RASSF2 / Fold change vs veh, RASSF2 / RFU, WIPF1 / Fold change vs veh, WIPF1 / RFU, LARP1B / Fold change vs veh, LARP1B / RFU, RASA1 / Fold change vs veh, RASA1 / RFU, RB1 / Fold change vs veh, RB1 / RFU, PPFIA1 / Fold change vs veh, PPFIA1 / RFU, MAT2A / Fold change vs veh, MAT2A / RFU, CCT5 / Fold change vs veh, CCT5 / RFU, WDR92 / Fold change vs veh, WDR92 / RFU, CUX1 / Fold change vs veh, CUX1 / RFU, TTC7A / Fold change vs veh, TTC7A / RFU, TMEM135 / Fold change vs veh, TMEM135 / RFU, DEPTOR / Fold change vs veh, DEPTOR / RFU, CPM / Fold change vs veh, CPM / RFU, DNAJB6 / Fold change vs veh, DNAJB6 / RFU, CACNA2D3 / Fold change vs veh, CACNA2D3 / RFU, DTX4 / Fold change vs veh, DTX4 / RFU, TFCP2 / Fold change vs veh, TFCP2 / RFU, GMCL1 /// GMCL1P1 / Fold change vs veh, GMCL1 /// GMCL1P1 / RFU, AEBP2 / Fold change vs veh, AEBP2 / RFU, SNHG1 /// SNORD22 /// SNORD25 /// SNORD26 /// SNORD27 /// SNORD28 /// SNORD29 /// SNORD31 / Fold change vs veh, SNHG1 /// SNORD22 /// SNORD25 /// SNORD26 /// SNORD27 /// SNORD28 /// SNORD29 /// SNORD31 / Fold change (Aza/veh), C12orf56 (ProbeSet 11735607_a_at) / Fold change (ACY-1035/veh), C12orf56 (ProbeSet 11735607_a_at) / Fold change (Aza/veh), FGFR1OP (ProbeSet 11751329_s_at) / Fold change (ACY-1035/veh), FGFR1OP (ProbeSet 11751329_s_at) / Fold change (Aza/veh), VPS36 (ProbeSet 11739960_a_at) / Fold change (ACY-1035/veh), VPS36 (ProbeSet 11739960_a_at) / RFU SYPL1 (11715823_x_at) / Fold change /veh SYPL1 (11715823_x_at) / RFU IGFBP7 (11715501_s_at) / Fold change /veh IGFBP7 (11715501_s_at) / RFU REEP3 (11722064_at) / Fold change /veh REEP3 (11722064_at) / RFU IGLL1 (11728026_x_at) / Fold change /veh IGLL1 (11728026_x_at): dose or concentration left out as unconfirmed", "conditions": "MV-4-11 cells, 48 hours"}
{"smiles": "Nc1ccc(-c2cccs2)cc1NC(=O)c1ccc2c(c1)cc(C1CC1)n2CCN1CCOCC1", "note": "[ACY-1035]", "values": [{"measurement": "RFU KRT8 (11758188_x_at)", "result": 20.03, "unit": "RFU"}]}
